Measured values from patent US20070282004A1, “Use of a Cyclopentenone Prostaglandin for Delaying for the Onset and/or Preventing the Continuation of Labour” (Imperial College Innovations Limited, priority 2003, published 2007).

Key:
phospho-p65 = assay: Mouse model of preterm labour (LPS): placental phospho-p65 by western immunoblot; format: in vivo; details: gestation day 16 mice, 6 hours after intrauterine 250 μg LPS + 15d-PGJ2, p<0.05
Description: Relative concentrations of phospho-p65 in placental homogenates collected from gestation day 16 mice 6 hours after intrauterine injection of 250 μg LPS+vehicle or 250 μg LPS+[…] 15d-PGJ2. * denotes statistically significant difference (t-test (p<0.05)).
(§1) Surgery was performed on timed pregnant MF1 mice at day 16 of gestation. After deep maternal anaesthesia was attained, a minilaparotomy was performed in the lower abdomen. The uterine horns were exposed through the incision and preterm labour was induced by the intrauterine injection of 250 μg lipopolysaccharide (LPS, Sigma) into the gravid horn. This was immediately followed by injection of 4 μg […] (Cayman), or an equal volume of vehicle (methyl acetate), at the same site. The uterus was then returned to the abdomen and the fascia and skin were closed with continuous vicryl sutures.
(§2) Mice were sacrificed 6 hours after injection of LPS±15d-PGJ2. […]
(§3) Homogenate levels of Interlekin-1β (IL-1β) and tumour necrosis factor α (TNFα) were determined in placental lysates by ELISA (R and D systems) according to manufacturers instructions. Total protein concentrations were determined for each homogenate and IL-1β and TNFα levels were expressed as pg/mg total protein. […] Phosphorylated p65 (phospho-p65) was detected by western immunoblotting using a specific antibody (Santa Cruz) and quantified by densitometric analysis.

IL-1β = assay: Mouse model of preterm labour (LPS): placental IL-1β by ELISA; format: in vivo; details: gestation day 16 mice, 6 hours after intrauterine 250 μg LPS + 4 μg 15d-PGJ2, p<0.05
Description: Concentrations of IL-1β in placental homogenates collected from gestation day 16 mice 6 hours after intrauterine injection of 250 μg LPS+vehicle or 250 μg LPS+4 μg 15d-PGJ2. * denotes statistically significant difference (t-test (p<0.05)).
as §1, §2, §3

NF-κB = assay: Western immunoblot of p65, p50, IκB in amnion cell extracts; format: cell-based, human; details: L−, L+ amnion cells; for IL-1β-induced p65 nuclear translocation: treated 2 h, IL-1β 15 min
Description: Western immunoblots of nuclear or cytosolic protein extracts from (A) myometrial cells, (B) L− amnion cells, and (C) L+ amnion cells treated with 15dPGJ2 or vehicle for 2 h±IL-1β stimulation (15 min). Blots probed with antibodies against p65, p50 or IκBα.
Placentae were obtained from patients at term either at elective Caesarean section prior to labour (L−) or following spontaneous labour onset and vaginal delivery (L+). Amnion cells were prepared as described in Bennett et al., (1989). Briefly, the amnion was separated from the placenta, washed 3× in PBS, cut into strips, and incubated in 0.5 mM EDTA in PBS for 15 min. The strips were washed in PBS 2× and digested with 2.5 mg/ml dispase in serum-free DMEM for 35 min at 37° C. The amnion was then shaken vigorously in DMEM, 10% FCS to dissociate the cells, the remaining strips discarded, and the cell suspension pelleted at 175 g for 10 min and cultured in DMEM, 10% FCS (Sigma), 1% L-glutamine, 1% penicillin-streptomycin.
Nuclear and cytosolic protein extracts were obtained from cultured amnion cells as described by Schreiber et al (1989). For nuclear/cytosolic fractionation, confluent cell monolayers were scraped and lysed using a buffer containing 10 mM HEPES, 10 mM KCl, 0.1 mM EDTA, 0.1 mM EGTA, 2 mM DTT, 1% (v/v) NP-40 and complete protease inhibitor tablets (CPIs, Roche), diluted to manufacturer's instructions. Cell lysates were incubated on ice for 10 min and NP-40 added to a final concentration of 1% (v/v). Lysates were vortexed for 10 secs and centrifuged for 30 secs at 4° C., 12000 g. The supernatants were retained as the cytosolic protein extracts. The pellets were resuspended in buffer containing 10 mM HEPES, 10 mM KCl, 0.1 mM EDTA, 0.1 mM EGTA, 2 mM DTT, 400 mM NaCl, 1% NP-40 (v/v) and CPIs. Samples were shaken vigorously for 15 min in an ice bath. The nuclear protein extracts were obtained in the supernatant following a 5 min centrifugation at 4° C., 12000 g.
Protein samples (20-70 μg) were mixed with Laemmli sample buffer (1:1) containing β-mercaptoethanol (5%), and boiled for 5 min. Proteins were then separated by SDS-PAGE (12-14% gels) and transferred onto PVDF membrane (Amersham Pharmacia Biotech). The membranes were blocked overnight in 5% non-fat milk prepared in PBS-T buffer, at 4° C. The blots were incubated with the primary antibody in 1% non-fat milk in PBS-T buffer for 1 h, and washed three times (10 min each) in PBS-T with vigorous shaking. The blots were then incubated with HRP-conjugated secondary antibody (diluted 1:2000 in 1% non-fat milk in PBS-T buffer) for 1 h and washed three times (10 min each) in PBS-T. Signal detection was achieved using enhanced chemi-luminescence (ECL plus system, Amersham Pharmacia Biotech) according to manufacturer's instructions.
30-50 μg protein extracts were subjected to SDS-PAGE and Western immuno-blotting. Secondary antibodies were IgG-HRP and ECL Plus detection kit (Amersham Pharmacia Biotech, Amersham Place, Little Chalfont, Bucks, HP7 9NA) was used for visualisation.

PPAR-γ = molecular target: T1, PPAR-γ (Homo sapiens, UniProt P37231); details: as stated from the literature; cited from earlier work
T1 sequence (P37231 1-505): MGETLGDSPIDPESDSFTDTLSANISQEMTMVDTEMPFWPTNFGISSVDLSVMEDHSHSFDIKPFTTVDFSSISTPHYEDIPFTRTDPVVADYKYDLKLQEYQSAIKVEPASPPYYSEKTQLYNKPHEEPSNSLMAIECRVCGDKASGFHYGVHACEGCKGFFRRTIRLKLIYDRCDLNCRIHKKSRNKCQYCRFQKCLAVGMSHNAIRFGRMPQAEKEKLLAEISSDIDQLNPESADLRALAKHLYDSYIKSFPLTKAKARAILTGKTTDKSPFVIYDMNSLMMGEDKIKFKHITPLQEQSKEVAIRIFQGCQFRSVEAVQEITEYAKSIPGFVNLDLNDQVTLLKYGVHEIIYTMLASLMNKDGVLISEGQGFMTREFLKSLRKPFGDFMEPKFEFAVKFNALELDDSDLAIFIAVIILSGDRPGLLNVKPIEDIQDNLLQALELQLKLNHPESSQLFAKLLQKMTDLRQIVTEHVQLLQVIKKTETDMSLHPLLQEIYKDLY

SMILES | phospho-p65 levels lower in proximal placentae vs LPS+vehicle (phospho-p65) | Levels of IL-1β lower in proximal placentae vs LPS+vehicle (IL-1β) | IL-1β-induced IκBα degradation (NF-κB) | IL-1β-induced IκBβ degradation (NF-κB) | IL-1β-induced p50 phosphorylation (NF-κB) | IL-1β-induced p65 nuclear translocation (NF-κB) | IL-1β-induced p65 nuclear translocation (NF-κB; listed as 15dPGJ2) | PPAR agonist / ligand activity (PPAR-γ)
CCCCCC=CC=C1C(=O)C=C[C@@H]1CC=CCCCC(=O)O [15d-PGJ2, 15-deoxy-Δ^12,14prostaglandin J2] | approximately 35% | approximately 40% | inhibition | inhibition | inhibition | inhibited | inhibition | is a PPAR agonist
CCCCC[C@H](O)/C=C/[C@H]1C=CC(=O)[C@@H]1CCCCCCC(=O)O [PGA1, prostaglandin A1] |  |  |  |  |  |  |  | does not act as a PPAR ligand
